The values that follow come from ChEMBL document CHEMBL4033730, “Thiosemicarbazones as inhibitors of tyrosinase enzyme” (Bioorg Med Chem Lett, 2017).

Active and inactive are the calls of the source. The rule behind the calls is not given here.

Data set [1] addresses T1, Mushroom tyrosinase (Agaricus bisporus, UniProt O42713+Q00024+C7FF04+C7FF05). Put plainly: […] inhibition of Agaricus bisporus tyrosinase assessed as reduction in diphenolase activity by measuring L-DOPA oxidation at 1.6 mM after 30 mins by Lineweaver-Burk plot.
Data set [2] deals with T1, Mushroom tyrosinase. Put plainly: Inhibition of Agaricus bisporus tyrosinase assessed as reduction in diphenolase activity by measuring L-DOPA oxidation after 30 mins.
Data set [3] addresses T2, Mushroom tyrosinase (Agaricus bisporus) (UniProt O42713+Q00024+C7FF04+C7FF05). Put plainly: Inhibition of Agaricus bisporus tyrosinase assessed as reduction in diphenolase activity by measuring L-DOPA oxidation at 1.6 mM after 0 to 70 mins by UV-visible specroscopy.
In data set [4] the target is T1, Mushroom tyrosinase. Put plainly: Competitive inhibition of Agaricus bisporus tyrosinase assessed as reduction in diphenolase activity by measuring L-DOPA oxidation at 1.6 mM after 30 mins by Lineweaver-Burk plot.
For data set [5], the system named is COc1cc(/C=N/NC(N)=S)ccc1O. Put plainly: (§1) Inhibition of Agaricus bisporus tyrosinase assessed as reduction in diphenolase activity by measuring apparent Km for L-DOPA oxidation at 1.6 mM after 30 mins by Lineweaver-Burk plot.
The subject of data set [6] is NC(=S)N/N=C/c1ccccc1. The data set is described as §1.
In data set [7] the test system is NC(=S)N/N=C/c1ccc(NC(=S)N/N=C/c2ccccn2)cc1. The data set is described as §1.
The subject of data set [8] is NC(=S)N/N=C/c1ccc(Br)cc1. The description is as §1.
Data set [9] concerns CCOc1ccc(/C=N/NC(N)=S)cc1. The description is as §1.
In data set [10] the test system is NC(=S)N/N=C/c1ccc(O)cc1. The data set is described as §1.
For data set [11], the system named is NC(=S)N/N=C/c1ccc(Cl)cc1. The data set is described as §1.
Data set [12] relates to COc1ccc(/C=N/NC(N)=S)cc1. The description is as §1.
The subject of data set [13] is COc1cc(/C=N/NC(N)=S)ccc1O. Description: (§2) Inhibition of Agaricus bisporus tyrosinase assessed as reduction in diphenolase activity by measuring Vmax for L-DOPA oxidation at 1.6 mM after 30 mins by Lineweaver-Burk plot.
Data set [14] deals with NC(=S)N/N=C/c1ccccc1. The description is as §2.
Data set [15] concerns NC(=S)N/N=C/c1ccc(NC(=S)N/N=C/c2ccccn2)cc1. Described as §2.
For data set [16], the system named is NC(=S)N/N=C/c1ccc(Br)cc1. Described as §2.
Data set [17] deals with CCOc1ccc(/C=N/NC(N)=S)cc1. The description is as §2.
The subject of data set [18] is NC(=S)N/N=C/c1ccc(O)cc1. The description is as §2.
For data set [19], the system named is NC(=S)N/N=C/c1ccc(Cl)cc1. Described as §2.
For data set [20], the system named is COc1ccc(/C=N/NC(N)=S)cc1. Described as §2.
Data set [21] concerns the target T1, Mushroom tyrosinase. Put plainly: Uncompetitive inhibition of Agaricus bisporus tyrosinase assessed as reduction in diphenolase activity by measuring L-DOPA oxidation at 1.6 mM after 30 mins by Lineweaver-Burk plot.
Data set [22] concerns the target T2, Mushroom tyrosinase (Agaricus bisporus). Put plainly: Competitive inhibition of Agaricus bisporus tyrosinase assessed as reduction in diphenolase activity by measuring L-DOPA oxidation at 1.6 mM after 30 mins UV-visible specroscopy.
Data set [23] has the same target. Description: Inhibition of Agaricus bisporus tyrosinase assessed as reduction in diphenolase activity by measuring L-DOPA oxidation at 0.44 mM after 30 mins.
Data set [24] has the same target. Put plainly: Inhibition of Agaricus bisporus tyrosinase assessed as reduction in diphenolase activity by measuring L-DOPA oxidation at 1.78 mM after 30 mins.
Data set [25] has the same target. Description: Inhibition of Agaricus bisporus tyrosinase assessed as reduction in diphenolase activity by measuring L-DOPA oxidation at 0.15 mM after 30 mins.
The target is the same in data set [26]. Put plainly: Inhibition of Agaricus bisporus tyrosinase assessed as reduction in diphenolase activity by measuring L-DOPA oxidation at 2.67 mM after 30 mins.
Data set [27] has the same target. Description: Inhibition of Agaricus bisporus tyrosinase assessed as reduction in diphenolase activity by measuring L-DOPA oxidation at 0.29 mM after 30 mins.
Data set [28] has the same target. Put plainly: Inhibition of Agaricus bisporus tyrosinase assessed as reduction in diphenolase activity by measuring L-DOPA oxidation at 1.33 mM after 30 mins.
Data set [29] shares this target. Put plainly: Inhibition of Agaricus bisporus tyrosinase assessed as reduction in diphenolase activity by measuring L-DOPA oxidation at 0.89 mM after 30 mins.
For data set [30] the target is unchanged. Description: Inhibition of Agaricus bisporus tyrosinase assessed as reduction in diphenolase activity by measuring L-DOPA oxidation at 2.22 mM after 30 mins.

As usually defined, the Ki is the equilibrium dissociation constant of an inhibitor or competing ligand from its target. By IC50 is commonly meant the point on the concentration scale where inhibition reaches its midpoint. The term inhibition denotes the relative decrease from the control value, in per cent. The Km is the substrate concentration at which the rate is half of its maximum. Broadly, the Vmax is the rate approached at saturating substrate.

Mushroom tyrosinase (Agaricus bisporus) (from UniProt O42713+Q00024+C7FF04+C7FF05), sequence (C7FF05 whole entry, looked up): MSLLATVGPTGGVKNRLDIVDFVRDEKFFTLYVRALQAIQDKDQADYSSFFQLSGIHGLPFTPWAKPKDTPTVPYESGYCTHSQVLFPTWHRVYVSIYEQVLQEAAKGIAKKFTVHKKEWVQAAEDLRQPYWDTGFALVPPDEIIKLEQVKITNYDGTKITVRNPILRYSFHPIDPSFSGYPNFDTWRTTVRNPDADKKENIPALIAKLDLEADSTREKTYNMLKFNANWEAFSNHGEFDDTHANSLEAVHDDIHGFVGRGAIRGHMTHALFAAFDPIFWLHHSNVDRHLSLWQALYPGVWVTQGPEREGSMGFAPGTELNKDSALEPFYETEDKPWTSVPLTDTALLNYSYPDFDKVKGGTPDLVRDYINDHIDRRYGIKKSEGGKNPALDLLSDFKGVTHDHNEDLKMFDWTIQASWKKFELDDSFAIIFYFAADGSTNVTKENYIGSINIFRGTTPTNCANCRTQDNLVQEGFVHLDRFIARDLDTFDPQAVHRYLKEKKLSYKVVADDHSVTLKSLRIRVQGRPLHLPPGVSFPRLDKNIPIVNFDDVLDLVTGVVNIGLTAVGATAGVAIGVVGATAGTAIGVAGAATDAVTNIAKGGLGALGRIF
Mushroom tyrosinase (Agaricus bisporus) (from UniProt O42713+Q00024+C7FF04+C7FF05), sequence (C7FF04 whole entry, looked up): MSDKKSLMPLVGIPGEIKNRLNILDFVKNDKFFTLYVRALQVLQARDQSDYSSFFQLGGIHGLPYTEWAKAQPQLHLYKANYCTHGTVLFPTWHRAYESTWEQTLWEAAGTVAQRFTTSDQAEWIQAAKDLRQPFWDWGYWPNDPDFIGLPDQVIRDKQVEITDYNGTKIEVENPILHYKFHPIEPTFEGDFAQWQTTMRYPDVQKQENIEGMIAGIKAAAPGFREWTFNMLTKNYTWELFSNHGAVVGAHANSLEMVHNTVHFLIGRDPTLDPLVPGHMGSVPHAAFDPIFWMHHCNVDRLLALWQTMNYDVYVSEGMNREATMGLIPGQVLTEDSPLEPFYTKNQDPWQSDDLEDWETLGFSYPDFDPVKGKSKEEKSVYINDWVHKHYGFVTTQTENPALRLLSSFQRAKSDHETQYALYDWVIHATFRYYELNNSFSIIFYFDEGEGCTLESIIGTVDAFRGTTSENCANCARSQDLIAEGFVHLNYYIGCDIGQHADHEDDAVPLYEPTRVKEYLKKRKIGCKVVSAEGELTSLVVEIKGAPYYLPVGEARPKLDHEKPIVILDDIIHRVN
Mushroom tyrosinase (Agaricus bisporus) (from UniProt O42713+Q00024+C7FF04+C7FF05), sequence (Q00024 whole entry, looked up): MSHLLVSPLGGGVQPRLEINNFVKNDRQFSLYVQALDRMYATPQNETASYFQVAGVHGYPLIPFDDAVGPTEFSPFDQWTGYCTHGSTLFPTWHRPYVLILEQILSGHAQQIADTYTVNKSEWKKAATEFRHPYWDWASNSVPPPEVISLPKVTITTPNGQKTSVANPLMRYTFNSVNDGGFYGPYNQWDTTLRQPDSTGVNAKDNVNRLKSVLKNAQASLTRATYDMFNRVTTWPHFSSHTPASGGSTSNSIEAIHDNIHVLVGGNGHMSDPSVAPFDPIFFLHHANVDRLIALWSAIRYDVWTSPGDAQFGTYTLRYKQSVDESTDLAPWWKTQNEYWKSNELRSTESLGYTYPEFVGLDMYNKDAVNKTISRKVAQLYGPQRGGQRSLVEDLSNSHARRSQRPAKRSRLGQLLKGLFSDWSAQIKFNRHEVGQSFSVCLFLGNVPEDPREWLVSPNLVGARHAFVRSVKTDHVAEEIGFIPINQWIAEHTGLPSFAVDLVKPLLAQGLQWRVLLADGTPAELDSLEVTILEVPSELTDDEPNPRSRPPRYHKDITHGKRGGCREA
Mushroom tyrosinase (Agaricus bisporus) (from UniProt O42713+Q00024+C7FF04+C7FF05), sequence (O42713 whole entry, looked up): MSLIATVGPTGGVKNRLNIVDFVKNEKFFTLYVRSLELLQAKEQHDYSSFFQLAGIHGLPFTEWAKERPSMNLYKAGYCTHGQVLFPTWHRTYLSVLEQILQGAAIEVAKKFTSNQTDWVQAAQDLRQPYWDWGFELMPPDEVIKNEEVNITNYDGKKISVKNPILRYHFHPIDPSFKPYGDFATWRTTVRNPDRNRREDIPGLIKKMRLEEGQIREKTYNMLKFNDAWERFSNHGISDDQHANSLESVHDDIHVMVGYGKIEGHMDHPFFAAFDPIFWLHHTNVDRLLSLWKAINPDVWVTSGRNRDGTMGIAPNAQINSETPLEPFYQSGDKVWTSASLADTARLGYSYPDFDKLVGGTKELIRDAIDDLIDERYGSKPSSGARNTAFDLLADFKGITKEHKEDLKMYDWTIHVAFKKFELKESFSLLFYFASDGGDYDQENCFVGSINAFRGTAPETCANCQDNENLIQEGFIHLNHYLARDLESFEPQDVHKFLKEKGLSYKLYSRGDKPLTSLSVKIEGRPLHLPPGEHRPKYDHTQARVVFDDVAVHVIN

With `NC(=S)N/N=C/c1ccccc1` [PHENYLTHIOSEMICARBAZONE], on Mushroom tyrosinase [1], the Ki came to 4500 µM. Besides, the concentration for half-maximal inhibition (IC50) at Mushroom tyrosinase [2] stood at 820 µM. Also, the inhibition result in data set [3] is “Active”.
Consider `CCOc1ccc(/C=N/NC(N)=S)cc1`, for which, on Mushroom tyrosinase [2], the IC50 is 360 µM. In addition, at Mushroom tyrosinase [4], the inhibition constant Ki amounted to 60 µM. Moreover, the inhibition result in data set [3] was “Active”.
On the same counts, the results for `NC(=S)N/N=C/c1ccc(NC(=S)N/N=C/c2ccccn2)cc1` are 1190 µM, 200 µM and “Active”.
As for “Mushroom tyrosinase (Agaricus bisporus) (from UniProt O42713+Q00024+C7FF04+C7FF05)”, the Michaelis-Menten constant (Km) is 22.4 mM in [5]; 0.8 mM in the data set with NC(=S)N/N=C/c1ccccc1 [6]; 8.3 mM in data set [7]; 0.5 mM in the data set with NC(=S)N/N=C/c1ccc(Br)cc1 [8]; 21.7 mM in data set [9]; 0.7 mM with NC(=S)N/N=C/c1ccc(O)cc1 [10]. In addition, the Km is 1.9 mM with NC(=S)N/N=C/c1ccc(Cl)cc1 [11] and 26.3 mM in the data set with COc1ccc(/C=N/NC(N)=S)cc1 [12]. The Vmax turned out to be 48.1 mM/min in data set [13]; 18.9 mM/min in the data set with NC(=S)N/N=C/c1ccccc1 [14]; 27.1 mM/min in data set [15]; 16.6 mM/min with NC(=S)N/N=C/c1ccc(Br)cc1 [16]; 38.4 mM/min in [17]; 9.5 mM/min in the data set with NC(=S)N/N=C/c1ccc(O)cc1 [18]. The values for the maximal velocity (Vmax) in the data set with NC(=S)N/N=C/c1ccc(Cl)cc1 [19] and in the data set on COc1ccc(/C=N/NC(N)=S)cc1 [20] were 39.7 mM/min and 34.8 mM/min, respectively.
For the compound `NC(=S)N/N=C/c1ccc(Br)cc1`, the Ki at Mushroom tyrosinase [21] turned out to be 600 µM. Also, the IC50 at Mushroom tyrosinase [2] worked out at 1420 µM. The inhibition entry in data set [3] is “Active”.
Take `NC(=S)N/N=C/c1ccc(O)cc1`: the inhibition result in data set [3] was “Active”.
On to `NC(=S)N/N=C/c1ccc(Cl)cc1`, for which the IC50 at Mushroom tyrosinase [2] is 840 µM. Moreover, the Ki on Mushroom tyrosinase [4] came out at 1300 µM.
Turning to `COc1cc(/C=N/NC(N)=S)ccc1O`, the inhibition entry in data set [22] and in data set [3] was “Active” in each case. In addition, the inhibition came out at 59.3% in [23]; 92.8% in [24]; 24% in data set [25]; 93.8% in data set [26]; 45.7% in data set [27]; 89.2% in data set [28]. Moreover, the results for the inhibition in [29] and in [30] were 79.2% and 94.6%, respectively. The IC50 on Mushroom tyrosinase [2] was determined as 350 µM. At Mushroom tyrosinase [4], the Ki was determined as 60 µM.
In the case of `COc1ccc(/C=N/NC(N)=S)cc1`, the half-maximal inhibitory concentration (IC50) at Mushroom tyrosinase [2] turned out to be 440 µM. Moreover, the Ki at Mushroom tyrosinase [4] stood at 50 µM. Also, the inhibition entry in data set [3] is “Active”.
